Where a SMILES comes first, the peptide text is derived from it. The star is where a group is joined. Cbz = O=C(OCc1ccccc1)*
Tests used:
DDR1 [1] = biological target: T1, DDR1 (Homo sapiens, UniProt Q08345); experiment: Competition inhibition experiments (DDR1 Western blot); assay type: cell-based; parameters: endogenous in cells; host or cells: unnamed tumor cells; details: TPD12140 100 nM plus different concentrations of competitor, 24 h
Protocol: Tumor cells were taken and inoculated into 6-well plates with 1×3×10^5 cells per well, and the cell growth status was observed on the next day. When the cells reached 80% confluence, TPD12140 (working concentration 100 nM) and different concentrations of cabozantinib or lenalidomide were added to the cell culture medium of the experimental group, and the control group was added with an equal volume of DMSO, and the incubation was continued for 24 h. Western Blot was performed to detect the expression of DDR1 protein (the same operation as above). The experiments were repeated three times or more, and the experimental data were statistically analyzed using GraphPad Prism software.

DDR1 [2] = biological target: T1, DDR1; experiment: Experiments with inhibitors of the ubiquitin-proteasome system (DDR1 Western blot); assay type: cell-based; parameters: endogenous in cells; host or cells: unnamed tumor cells; details: MG132 10 uM or MLN4924 1 uM for 6 hours, then TPD12140 100 nM 18 h
Protocol: Tumor cells were inoculated into 6-well plates with 1-3×10^5 cells per well, and the cell growth status was observed the next day. When the cells grew to about 80% confluence, the proteasome inhibitor MG132 (working concentration 10 uM) or the protein ubiquitination inhibitor MLN4924 (working concentration 1 uM) was added to the cell culture medium of the experimental group, and an equal volume of DMSO was added to the control group, and the incubation was continued for 6 hours. The medium in the well plates was discarded, washed twice with PBS, fresh medium was added, and compound TPD12140 (working concentration 100 nM) or an equal volume of DMSO was added to each group of cells, and the incubation was continued for 18 h. Western Blot was performed to detect the expression of DDR1 protein (same operation as above). The experiments were repeated three times or more, and the experimental data were statistically analyzed using GraphPad Prism software.

T1 sequence (Q08345 19-913): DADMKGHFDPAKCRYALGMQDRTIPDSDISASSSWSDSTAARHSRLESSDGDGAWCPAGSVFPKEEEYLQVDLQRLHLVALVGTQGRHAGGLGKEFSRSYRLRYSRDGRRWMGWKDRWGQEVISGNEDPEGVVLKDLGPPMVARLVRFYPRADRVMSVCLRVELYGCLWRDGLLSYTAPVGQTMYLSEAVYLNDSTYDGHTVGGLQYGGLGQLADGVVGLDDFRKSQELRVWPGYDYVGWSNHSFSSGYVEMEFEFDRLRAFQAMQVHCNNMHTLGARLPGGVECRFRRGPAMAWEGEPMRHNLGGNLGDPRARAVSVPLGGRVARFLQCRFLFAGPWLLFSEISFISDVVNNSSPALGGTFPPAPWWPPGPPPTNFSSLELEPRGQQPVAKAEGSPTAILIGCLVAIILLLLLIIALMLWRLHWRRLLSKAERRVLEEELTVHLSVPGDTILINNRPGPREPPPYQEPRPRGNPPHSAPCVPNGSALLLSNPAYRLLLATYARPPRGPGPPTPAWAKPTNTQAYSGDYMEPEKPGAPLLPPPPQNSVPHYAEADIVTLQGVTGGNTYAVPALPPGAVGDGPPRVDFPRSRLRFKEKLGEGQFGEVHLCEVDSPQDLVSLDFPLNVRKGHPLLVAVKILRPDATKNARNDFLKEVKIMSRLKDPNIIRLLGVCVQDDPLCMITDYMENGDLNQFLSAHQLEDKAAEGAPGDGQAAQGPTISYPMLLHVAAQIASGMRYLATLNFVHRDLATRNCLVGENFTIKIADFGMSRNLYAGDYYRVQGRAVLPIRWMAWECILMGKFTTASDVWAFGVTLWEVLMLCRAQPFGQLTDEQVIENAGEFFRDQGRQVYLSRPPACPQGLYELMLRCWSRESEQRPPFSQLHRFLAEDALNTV

Row | Compound | effect of competitor on degradation of DDR1 by TPD12140 (DDR1 [1]) | effect of inhibitor on degradation of DDR1 by TPD12140 (DDR1 [2])
1 | Nc1cccc2c1CN(C1CCC(=O)NC1=O)C2=O (centres unmarked) [lenalidomide] | inhibits the degradation of DDR1 by the compound | 
2 | CC(C)C[C@@H](C=O)NC(=O)[C@H](CC(C)C)NC(=O)[C@H](CC(C)C)NC(=O)OCc1ccccc1 [MG132] (Cbz-Leu-Leu-Leu-aldehyde) |  | can inhibit the degradation of the compounds
